# Patent US20210093730A1, “BIOMARKERS FOR ANTIBODY-DRUG CONJUGATE MONOTHERAPY OR COMBINATION THERAPY” (Immunomedics, Inc., priority 2019, published 2021)
# Several values for one entry are separate records, joined by “and”; a condition that tells them apart may be missing. Equal entries are not always repeated. Entries after “also recorded” stand apart in the source; their conditions may differ. Where two headings read alike, the source gives them in different places.
# What was measured:
# [1] = Pharmacokinetics in patient serum: ELISA for IgG and intact conjugate, HPLC for SN-38; type: in vivo, human
# Description: SN-38 was measured by HPLC.
# [2] = test system: platinum-resistant urothelial carcinoma; settings: 6 patients; cited from earlier work
# [3] = test system: metastatic triple-negative breast cancer (TNBC); settings: second line or later; cited from earlier work
# [4] = test system: diverse metastatic solid cancers
# Description: Patients were refractory/relapsed after standard treatment regimens for metastatic cancer.
# [5] = test system: metastatic small-cell lung cancer; settings: cited from earlier work
# [6] = test system: metastatic urothelial cancer; settings: cited from earlier work
# [7] = Immunogenicity: serum antibody responses to sacituzumab govitecan, the IgG and SN-38 by ELISA in mSCLC patients; type: in vivo, human; settings: up to 63 doses / up to 22 months of treatment
# Description: Positivity required at least 10% of the tumor cells to be stained, with an intensity scored as 1+ (weak), 2+ (moderate), and 3+ (strong). […] Assay sensitivity is 50 ng/mL for the ADC and the IgG, and 170 ng/mL for anti-SN-38 antibody.
# [8] = test system: platinum-resistant urothelial carcinoma; assay: Clinical trial of sacituzumab govitecan in 6 patients with metastatic platinum-resistant urothelial carcinoma (PRUC)
# Description: Response was assessed using the Response Evaluation Criteria in Solid Tumors, version 1.1.
# [9] = test system: non-small cell lung cancer (NSCLC); settings: cited from earlier work
# [10] = test system: metastatic urothelial cancer; assay: Further study of sacituzumab govitecan in metastatic urothelial cancer (mUC), 32 pts enrolled; type: in vivo, human
# Text: Response-evaluable pts received ≥2 doses, and had ≥1 post-baseline response assessment.
# [11] = 48 assessable pts excluding PDC
# [12] = esophageal cancer, 4 assessable patients
substance,measurement,setting,value
sacituzumab govitecan,clearance of intact conjugate compared with the IgG,[1]; ELISA,cleared more quickly than the IgG
same,SN-38 in the serum bound to the IgG,"[1]; HPLC, Unbound and TOTAL, non-glucuronidated form",> 95%
same,clearance of the conjugate from the serum,[1]; patients,≤ 3 days
same,clinically significant response,[2],50%
same,median progression-free survival (PFS),[3],5.5 months
same,overall survival (OS),[3],13.0 months
same,response rate,[3],33.3%
same,"partial response (PR), % of patients",[4]; [11],15%
same,"stable disease (SD), % of patients",[4]; [11],56%
same,"disease response, % of patients","[4]; 48 assessable pts excluding PDC, printed 38 pts",79%
same,maximum reduction in target lesions,"[4]; CRC case, after 10 months of treatment",65%
same,CEA after treatment,"[4]; CRC case, decrease from 781 ng/mL",26.5 ng/mL
same,reduction in target lesions at first CT assessment,"[4]; CRC case, starting dose 8 mg/kg",37%
same,total response [PR+SD],"[4]; CRC, 12/18",67%
same,"PD, patients","[4]; CRC, 18 assessable patients",6 patients
same,"PR, patients","[4]; CRC, 18 assessable patients",1 patients
same,primary target lesion size at first CT,"[4]; NSCLC case, 5.6 cm at start, after 6th dose",3.2 cm
same,total response [PR+SD],"[4]; NSCLC, 4/5",80%
same,"PD, patients","[4]; NSCLC, 5 assessable patients",1 patients
same,"PR, patients","[4]; NSCLC, 5 assessable patients",1 patients
same,reduction in target lesions,"[4]; SCLC case, 12 mg/kg reduced to 6.8 mg/kg, after two months",38%
same,total response [PR+SD],"[4]; SCLC, 2/4",50%
same,"PD, patients","[4]; SCLC, 4 assessable patients",2 patients
same,"PR, patients","[4]; SCLC, 4 assessable patients",2 patients
same,total response [PR+SD],"[4]; TNBC, 6/8",75%
same,"PD (progressive disease), patients","[4]; TNBC, 8 assessable patients",2 patients
same,"PR (partial response), patients","[4]; TNBC, 8 assessable patients",2 patients
same,total response [PR+SD],"[4]; all, 34/48",71%
same,"PD, patients","[4]; all, 48 assessable patients",14 patients
same,"PR, patients","[4]; all, 48 assessable patients",Seven
same,"PR, patients","[4]; all, 48 assessable patients, listed as hRS7-SN-38",7 patients
same,total response [PR+SD],"[4]; esophageal cancer, 3/4",75%
same,"PD, patients",[4]; [12],1 patients
same,"PR, patients",[4]; [12],1 patients
same,"Abdominal pain, Grade 3",[4]; in vivo,0
same,"Abdominal pain, Grade 4",[4]; in vivo,0
same,"Abdominal pain, TOTAL",[4]; in vivo,11%
same,"Alopecia, TOTAL",[4]; in vivo,40%
same,"Anemia, Grade 4",[4]; in vivo,0
same,"Anemia, TOTAL",[4]; in vivo,13%
same,"Deep vein thrombosis, Grade 3",[4]; in vivo,1 (2%)
same,"Deep vein thrombosis, Grade 4",[4]; in vivo,0
same,"Deep vein thrombosis, TOTAL",[4]; in vivo,2%
same,"Diarrhea, Grade 4",[4]; in vivo,0
same,"Diarrhea, TOTAL",[4]; in vivo,47%
same,"Dysgeusia, Grade 3",[4]; in vivo,0
same,"Dysgeusia, Grade 4",[4]; in vivo,0
same,"Dysgeusia, TOTAL",[4]; in vivo,15%
same,"Fatigue, Grade 4",[4]; in vivo,0
same,"Fatigue, TOTAL",[4]; in vivo,55%
same,"Hypokalemia, Grade 3",[4]; in vivo,1 (2%)
same,"Hypokalemia, Grade 4",[4]; in vivo,0
same,"Hypokalemia, TOTAL",[4]; in vivo,11%
same,"Nausea, Grade 4",[4]; in vivo,0
same,"Nausea, TOTAL",[4]; in vivo,53%
same,"Neutropenia, TOTAL",[4]; in vivo,43%
same,"Pyrexia, Grade 3",[4]; in vivo,0
same,"Pyrexia, Grade 4",[4]; in vivo,0
same,"Pyrexia, TOTAL",[4]; in vivo,13%
same,"Vomiting, Grade 4",[4]; in vivo,0
same,"Vomiting, TOTAL",[4]; in vivo,32%
same,"WBC Decrease, Grade 3",[4]; in vivo,1 (2%)
same,"WBC Decrease, Grade 4",[4]; in vivo,0
same,"WBC Decrease, TOTAL",[4]; in vivo,6%
same,alopecia,[4]; in vivo,40%
same,"anemia, grade 3",[4]; in vivo,2 (4%)
same,anti-hRS7 or anti-SN-38 antibodies,[4]; in vivo,No anti-hRS7 or anti-SN-38 antibodies were detected
same,diarrhea,[4]; in vivo,47%
same,diarrhea >=G3,[4]; in vivo,9%
same,"diarrhea, grade 3",[4]; in vivo,4 (9%)
same,fatigue,[4]; in vivo,55%
same,fatigue >=G3,[4]; in vivo,9%
same,"fatigue, grade 3",[4]; in vivo,4 (9%)
same,nausea,[4]; in vivo,53%
same,nausea >=G3,[4]; in vivo,0%
same,"nausea, grade 3",[4]; in vivo,0
same,neutropenia >=G3,[4]; in vivo,28%
same,neutropenia G4,[4]; in vivo,4%
same,"neutropenia, grade 3",[4]; in vivo,11 (24%)
same,"neutropenia, grade 4",[4]; in vivo,2 (4%)
same,vomiting,[4]; in vivo,32%
same,vomiting >=G3,[4]; in vivo,2%
same,"vomiting, grade 3",[4]; in vivo,1 (2%)
same,"median time to progression (TTP), PDC pts","[4]; pancreatic cancer, 8 wks in last prior therapy",12.7 wks and 11.9 wks
same,"TTP, remaining 48 pts",[4]; range 6.0 to 51.4 wks,≥ 12.6 wks
same,ORR,"[5]; 53 mSCLC patients (Gray et al., 2017)",14%
same,median OS,"[5]; Gray et al., 2017",7.5 months
same,median PFS,"[5]; Gray et al., 2017",3.7 months
same,median response duration,"[5]; Gray et al., 2017",5.7 months
same,patients with tumor shrinkage from baseline,"[5]; Gray et al., 2017",Sixty
same,CR (complete response),[6]; 25 assessable patients,1 patients
same,ORR,[6]; 25 assessable patients,36%
same,PR (partial response),[6]; 25 assessable patients,8 patients
same,"ORR, 1 line of prior chemotherapy",[6]; in vivo,53.8%
same,"ORR, two or more prior therapies",[6]; in vivo,16.7%
same,median PFS,[6]; in vivo,7.2 months
same,"immunogenicity (antibodies to sacituzumab govitecan, hRS7 antibody or SN-38)",[7],not immunogenic; also recorded: No neutralizing antibodies
same,grade 4 non-hematologic toxicities,[8]; 6 patients,No grade 4 non-hematologic toxicities were observed
same,tolerability,[8]; 6 patients,generally well tolerated
same,patients with a clinically significant response,[8]; of 6 patients,3 patients
same,patients with grade 3 toxicities (flank pain and bacteremia),[8]; of 6 patients,Two
same,patients with progressive disease,[8]; of 6 patients,3 patients
same,patients with partial response,"[8]; of 6 patients, RECIST 1.1",Two
same,"reduction in target lesions, patient with progressive disease because of a new lesion",[8]; one patient,12%
same,"reduction in target lesions, patient with stable disease",[8]; one patient,28%
same,"reduction in target lesions, best responder","[8]; partial response, including liver metastases",38%
same,clinical benefit rate,[9]; 47 patients,43%
same,ORR,"[9]; 47 response assessable patients, median three prior therapies",19%
same,median OS,"[9]; human, in vivo",9.5 months
same,median PFS,"[9]; human, in vivo",5.2 months
same,"ORR, pts with 1 line of prior chemotherapy",[10]; 7/13,53.8%
same,ORR,"[10]; 25 assessable pts, 8 or 10 mg/kg days 1 and 8 every 21 days",36%
same,grade 3 hypophosphatemia,[10]; 25 pts,8%
same,grade 4 neutropenia,[10]; 25 pts,16%
same,duration of response for CR/PR pts,[10]; 95% CI 4.1-12.9,5.1 mos
same,median PFS,"[10]; all patients, 95% CI 4.9-10.7",7.2 mos
same,"ORR, pts with 2 to 5 prior therapy lines",[10]; in vivo,16.7%
same,duration of grade 4 neutropenia,[10]; in vivo,< 7 days
same,PR among pts with progression after prior IO,[10]; of 4 pts,1 patients
same,complete responses (CR),[10]; of 25 pts,1 patients
same,partial responses (PR),[10]; of 25 pts,8 patients
same,pts with stable disease >4 mos,[10]; of the SD pts,10/11
